Experimental data as given in ChEMBL document CHEMBL5375985, “Discovery of JN122, a Spiroindoline-Containing Molecule that Inhibits MDM2/p53 Protein-Protein Interaction and Exerts Robust In Vivo Antitumor Efficacy” (J Med Chem, 2023).

Columns and labels:
[1] = tested on: HCT-116; assay: Antiproliferative activity against human HCT-116 cells harboring p53 assessed inhibition of cell growth incubated for 4 days by CCK-8 assay; conditions: HCT-116, 96 h
[2] = tested on: RKO; assay: Antiproliferative activity against human RKO cells harboring p53 assessed inhibition of cell growth incubated for 4 days by CCK-8 assay; conditions: 96 h
[3] = tested on: U2OS; assay: Antiproliferative activity against human U2OS cells harboring p53 assessed inhibition of cell growth incubated for 4 days by celltiter-glo assay; conditions: 96 h
[4] = tested on: A549; assay: Growth inhibition of human A549 cells harboring p53 incubated for 4 days by CCK-8 assay; conditions: A549, 96 h
[5] = tested on: HepG2; assay: Growth inhibition of human HepG2 cells harboring p53 incubated for 4 days by celltiter glo assay; conditions: HepG2, 96 h
[6] = tested on: NCI-H460; assay: Growth inhibition of human NCI-H460 cells harboring p53 incubated for 4 days by CCK-8 assay; conditions: NCI-H460, 96 h
[7] = tested on: HeLa; assay: Growth inhibition of human HeLa cells harboring p53 incubated for 4 days by CCK-8 assay; conditions: 96 h
[8] = tested on: SW480; assay: Growth inhibition of human SW480 cells incubated for 4 days by CCK-8 assay; conditions: SW480, 96 h
[9] = tested on: MSTO-211H; assay: cells; conditions: Homo sapiens, 96 h
Description: Growth inhibition of human MSTO-211H cells harboring p53 incubated for 4 days by CCK-8 assay

[10] = tested on: HCT-116; assay: Antiproliferative activity against human HCT-116 cells harboring p53 assessed inhibition of cell growth incubated for 4 days by celltiter-glo assay; conditions: HCT-116, 96 h
[11] = target: T1, Protein Mdm4 (Homo sapiens, UniProt O15151); assay: biochemical
T1 sequence (O15151 whole entry): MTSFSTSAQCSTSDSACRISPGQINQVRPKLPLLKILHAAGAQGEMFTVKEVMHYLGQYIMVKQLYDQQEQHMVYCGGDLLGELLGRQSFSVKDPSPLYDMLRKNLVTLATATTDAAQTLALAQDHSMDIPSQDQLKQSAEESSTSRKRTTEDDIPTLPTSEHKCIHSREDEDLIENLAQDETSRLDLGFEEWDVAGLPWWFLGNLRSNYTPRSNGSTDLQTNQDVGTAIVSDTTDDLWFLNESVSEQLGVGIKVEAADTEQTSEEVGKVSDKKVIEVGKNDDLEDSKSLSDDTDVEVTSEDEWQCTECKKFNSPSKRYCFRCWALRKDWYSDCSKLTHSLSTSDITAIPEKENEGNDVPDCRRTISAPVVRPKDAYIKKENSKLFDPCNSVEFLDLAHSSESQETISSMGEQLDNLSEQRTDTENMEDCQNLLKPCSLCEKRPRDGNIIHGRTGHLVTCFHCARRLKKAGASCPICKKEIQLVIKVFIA
Description: Inhibition of MDM4 (14 to 111 residues)/p53 (unknown origin) interaction expressed in Escherichia coli BL21(DE3) cells assessed as inhibition constant incubated for 1.5 hrs by competitive fluorescence polarization assay

[12] = target: Tumour suppressor protein p53/Mdm4 (Homo sapiens, UniProt O15151); assay: Binding affinity to MDM4/p53 (unknown origin) assessed as inhibition constant by FP assay
Sequence of Tumour suppressor protein p53/Mdm4 (P04637 whole entry, one chain of several): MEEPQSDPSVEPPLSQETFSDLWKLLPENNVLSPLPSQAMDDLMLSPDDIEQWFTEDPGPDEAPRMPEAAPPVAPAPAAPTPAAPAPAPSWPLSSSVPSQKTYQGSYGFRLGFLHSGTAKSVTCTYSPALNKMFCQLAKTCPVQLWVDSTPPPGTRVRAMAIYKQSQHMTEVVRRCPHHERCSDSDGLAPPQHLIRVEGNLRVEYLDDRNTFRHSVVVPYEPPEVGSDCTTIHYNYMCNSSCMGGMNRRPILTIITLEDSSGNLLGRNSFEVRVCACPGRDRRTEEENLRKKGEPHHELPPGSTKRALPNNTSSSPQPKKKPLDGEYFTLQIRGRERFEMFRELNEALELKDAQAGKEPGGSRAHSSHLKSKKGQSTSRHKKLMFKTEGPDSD

[13] = target: Tumour suppressor p53/oncoprotein Mdm2 (Homo sapiens, UniProt Q00987); assay: Binding affinity to MDM2/p53 (unknown origin) assessed as inhibition constant by FP assay
Sequence of Tumour suppressor p53/oncoprotein Mdm2 (P04637 whole entry): as the sequence (P04637 whole entry, one chain of several) above
Sequence of Tumour suppressor p53/oncoprotein Mdm2 (Q00987 whole entry): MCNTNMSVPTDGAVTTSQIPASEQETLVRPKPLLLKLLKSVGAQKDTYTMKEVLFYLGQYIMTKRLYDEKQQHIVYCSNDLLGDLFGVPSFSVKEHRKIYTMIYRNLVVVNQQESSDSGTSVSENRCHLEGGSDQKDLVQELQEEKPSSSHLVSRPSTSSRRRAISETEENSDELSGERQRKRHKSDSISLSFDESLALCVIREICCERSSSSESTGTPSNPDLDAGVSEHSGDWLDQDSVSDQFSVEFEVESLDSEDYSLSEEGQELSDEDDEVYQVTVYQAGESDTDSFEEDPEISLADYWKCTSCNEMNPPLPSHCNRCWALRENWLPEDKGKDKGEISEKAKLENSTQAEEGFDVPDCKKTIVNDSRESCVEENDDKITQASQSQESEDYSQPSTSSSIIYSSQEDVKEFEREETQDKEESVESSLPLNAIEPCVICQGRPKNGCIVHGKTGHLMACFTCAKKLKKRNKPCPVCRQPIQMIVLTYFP

Row | SMILES | IC50 [1] [nM] | IC50 [2] [nM] | IC50 [3] [nM] | other results
1 | CCN1[C@@H](CC(C)(C)C)[C@@]2(CNc3cc(Cl)ccc32)[C@@H](c2cccc(F)c2)[C@@H]1C(=O)Nc1ccc(C(=O)O)cc1OC | 25.7 | 172 | 304 | –
2 | COc1cc(C(=O)O)ccc1NC(=O)[C@@H]1N[C@@H](CC(C)(C)C)[C@@]2(CNc3cc(Cl)ccc32)[C@H]1c1cccc(C)c1 | 10 | 436 | – | –
3 | CCN1[C@@H](CC(C)(C)C)[C@@]2(CNc3ccc(Cl)cc32)[C@@H](c2cccc(Cl)c2Cl)[C@@H]1C(=O)Nc1ccc(C(=O)O)cc1OC | 1400 | 4430 | 1840 | –
4 | CCN1[C@@H](CC(C)(C)C)[C@@]2(CNc3cc(Cl)ccc32)[C@@H](c2ccccc2Cl)[C@@H]1C(=O)Nc1ccc(C(=O)O)cc1OC | 2040 | 5240 | 2820 | –
5 | CCN1[C@@H](CC(C)(C)C)[C@@]2(CNc3cc(Cl)ccc32)[C@@H](c2cccc(C)c2)[C@@H]1C(=O)Nc1ccc(C(=O)O)cc1OC | 144 | 1010 | 625 | –
6 | COc1ccc(C2=N[C@@H](c3ccc(Cl)cc3)[C@@H](c3ccc(Cl)cc3)N2C(=O)N2CCNC(=O)C2)c(OC(C)C)c1 [NUTLIN-3] | 1040 | 1920 | – | IC50 [4]: 1880 nM; IC50 [5]: 2050 nM; IC50 [6]: 6.49 nM; IC50 [7]: 28.2 nM; IC50 [8]: 24.1 nM; IC50 [9]: 2800 nM
7 | CCN1[C@@H](CC(C)(C)C)[C@@]2(CNc3cc(Cl)ccc32)[C@@H](c2cccc(Cl)c2Cl)[C@@H]1C(=O)Nc1ccc(C(=O)O)cc1OC | 75.5 | 330 | 647 | –
8 | CCN1[C@@H](CC(C)(C)C)[C@@]2(CNc3cc(Cl)ccc32)[C@@H](c2ccccc2F)[C@@H]1C(=O)Nc1ccc(C(=O)O)cc1OC | 865 | 2940 | 3410 | –
9 | COc1cc(C(=O)O)ccc1NC(=O)[C@@H]1N[C@@H](CC(C)(C)C)[C@@]2(CNc3cc(Cl)ccc32)[C@H]1c1cccc(F)c1 | 1.3 | 66.9 | – | –
10 | COc1cc(C(=O)O)ccc1NC(=O)[C@@H]1N[C@@H](CC(C)(C)C)[C@@]2(CNc3cc(Cl)ccc32)[C@H]1c1cccc(Cl)c1 | – | 12.9 | – | IC50 [10]: < 1 nM
11 | CNC(=O)c1ccc(NC(=O)[C@@H]2N[C@@H](CC(C)(C)C)[C@@]3(CNc4cc(Cl)ccc43)[C@H]2c2cccc(Cl)c2F)c(OC)c1 | 22 | 243 | – | Ki [11]: > 27 nM
12 | O=C1CN(C(=O)N2C(c3ccc4c(c3)C(=O)NCC(=O)N4c3ccccc3)=N[C@@H](c3ccc(Cl)cc3)[C@H]2c2ccc(Cl)cc2)CCN1 | – | – | – | Ki [12]: 10.8 nM; Ki [13]: 2.1 nM
